Source: ChEMBL document CHEMBL4342499, “Novel Stapling by Lysine Tethering Provides Stable and Low Hemolytic Cationic Antimicrobial Peptides” (J Med Chem, 2020)

What was measured:
Listeria monocytogenes = test: Antimicrobial activity against Listeria monocytogenes assessed as inhibition of microbial growth incubated for 16 hrs by microdilution method; format: functional
Staphylococcus aureus [1] = test: Antimicrobial activity against Staphylococcus aureus assessed as inhibition of microbial growth incubated for 16 hrs by microdilution method; format: functional
Pseudomonas aeruginosa = test: Antimicrobial activity against Pseudomonas aeruginosa assessed as inhibition of microbial growth incubated for 16 hrs by microdilution method; format: functional
Escherichia coli [2] = test: Antimicrobial activity against Escherichia coli assessed as inhibition of microbial growth incubated for 16 hrs by microdilution method; format: functional
Escherichia coli [3] = system: Escherichia coli
Staphylococcus aureus [4] = test: Antimicrobial activity against methicillin-resistant Staphylococcus aureus assessed as inhibition of microbial growth incubated for 16 hrs by microdilution method; format: functional

Row | Structure (SMILES) | MIC99.9 (Listeria monocytogenes) [µg/mL] | MIC99.9 (Staphylococcus aureus [1]) [µg/mL] | MIC99.9 (Pseudomonas aeruginosa) [µg/mL] | MIC99.9 (Escherichia coli [2]) [µg/mL] | MIC99.9 (Escherichia coli [3]) [µg/mL] | MIC99.9 (Staphylococcus aureus [4]) [µg/mL]
1 | CCN1CCN(C(=O)N[C@@H](C(=O)N[C@@H]2C(=O)N3C(C(=O)O)=C(CSc4nnnn4C)CS[C@H]23)c2ccc(O)cc2)C(=O)C1=O [CEFOPERAZONE] | 16 | 0.5 | 2 | 0.125 | >128 | >128
2 | CN[C@H](CC(C)C)C(=O)N[C@H]1C(=O)N[C@@H](CC(N)=O)C(=O)N[C@H]2C(=O)N[C@H]3C(=O)N[C@H](C(=O)N[C@H](C(=O)O)c4cc(O)cc(O)c4-c4cc3ccc4O)[C@H](O)c3ccc(c(Cl)c3)Oc3cc2cc(c3O[C@@H]2O[C@H](CO)[C@@H](O)[C@H](O)[C@H]2O[C@H]2C[C@](C)(N)[C@H](O)[C@H](C)O2)Oc2ccc(cc2Cl)[C@H]1O [VANCOMYCIN] | 1 | 2 | >128 | >128 | >128 | 2
